Laboratory results: ChEMBL document CHEMBL3817764, “Pyrimidine-based antimalarials: design strategies and antiplasmodial effects” (Medchemcomm, 2016)

Experiments:
Calf thymus DNA [1] = assay: Binding affinity to calf thymus DNA assessed as melting temperature (reference value: 59.5 degC); type: nucleic-acid assay; conditions: Bos taurus
Calf thymus DNA [2] = assay: Binding affinity to calf thymus DNA assessed as induction of hypochromic shift in intensity of quinoline absorption band at 331 nm at 7.1 uM; type: nucleic-acid assay; conditions: Bos taurus
Calf thymus DNA [3] = assay: Binding affinity to calf thymus DNA assessed as induction of red shift at 7.1 uM; type: nucleic-acid assay; conditions: Bos taurus
Plasmodium berghei = assay: Antiplasmodial against Plasmodium berghei in rat malaria model assessed as parasite suppression at 30 mg/kg measured after 4 days; type: functional
[4] = Oral bioavailability in Sprague-Dawley rat plasma by LC/MS analysis; type: ADME, organism-based
[5] = target: Dihydroorotate dehydrogenase (quinone), mitochondrial (Homo sapiens, UniProt Q02127); assay: Inhibition of human DHODH
Plasmodium falciparum [6] = assay: Antiplasmodial activity against chloroquine-resistant Plasmodium falciparum W2 by NBT assay; type: functional, organism-based
Plasmodium falciparum [7] = assay: Antiplasmodial activity against chloroquine-sensitive Plasmodium falciparum D6 by NBT assay; type: functional, organism-based
Plasmodium falciparum [8] = assay: Antimalarial activity against Plasmodium falciparum V1/S harboring DHFR N51I+C59R+S108N+I164L quadruple mutant assessed as reduction parasite growth by [3H]-hypoxanthine incorporation assay; type: functional, organism-based

Sequence of Dihydroorotate dehydrogenase (quinone), mitochondrial (Q02127 whole entry): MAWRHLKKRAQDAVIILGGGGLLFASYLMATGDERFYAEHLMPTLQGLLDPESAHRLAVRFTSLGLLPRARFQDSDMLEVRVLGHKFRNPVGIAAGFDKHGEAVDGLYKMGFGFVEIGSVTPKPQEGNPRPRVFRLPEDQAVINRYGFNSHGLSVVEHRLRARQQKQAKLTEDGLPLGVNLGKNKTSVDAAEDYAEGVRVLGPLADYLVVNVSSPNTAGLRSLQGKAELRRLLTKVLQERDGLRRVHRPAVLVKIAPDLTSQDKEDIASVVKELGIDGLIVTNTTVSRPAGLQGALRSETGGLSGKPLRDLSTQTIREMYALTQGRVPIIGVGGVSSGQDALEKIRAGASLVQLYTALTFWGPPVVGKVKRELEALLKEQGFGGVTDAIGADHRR

| Compound | IC50 (Plasmodium falciparum [6]) | IC50 (Plasmodium falciparum [7]) | other results |
| --- | --- | --- | --- |
| Clc1ccc2c(NCCCNc3nccc(N4CCCCC4)n3)ccnc2c1 |  |  | Tm (Calf thymus DNA [1]): 67.8 °C; Activity (Calf thymus DNA [2]): 23%; Activity (Calf thymus DNA [3]): 14 nm |
| Clc1ccc2c(NCCNc3ccnc(N4CCOCC4)n3)ccnc2c1 |  |  | Activity (Plasmodium berghei): 93.9% |
| CC1(C)N=C(N)N=C(N)N1OCCCOc1cc(Cl)c(Cl)cc1Cl.Cl |  |  | bioavailability [4]: 1% |
| Cc1cc(Nc2ccc3ccccc3c2)n2ncnc2n1 |  |  | IC50 [5]: > 200000 nM |
| Cc1nc(N)nc(N)c1OCCCOc1cc(Cl)c(Cl)cc1Cl |  |  | bioavailability [4]: 83% |
| Cc1cc(N2CCCCC2)nc(NCCNc2ccnc3cc(Cl)ccc23)n1 | 16 nM | 6 nM |  |
| CN1CCN(c2ccnc(NCCNc3ccnc4cc(Cl)ccc34)n2)CC1 | 16 nM | 6 nM |  |
| Cc1cc(N2CCCCC2)nc(NCCCNc2ccnc3cc(Cl)ccc23)n1 | 16 nM | 6 nM |  |
| Cc1cc(N2CCN(C)CC2)nc(NCCNc2ccnc3cc(Cl)ccc23)n1 | 16 nM | 6 nM |  |
| Cc1cc(N2CCOCC2)nc(NCCCNc2ccnc3cc(Cl)ccc23)n1 | 16 nM | 6 nM |  |
| Cc1cc(N2CCCCC2)nc(NCCCCCCNc2ccnc3cc(Cl)ccc23)n1 | 16 nM | 6 nM |  |
| Clc1ccc2c(NCCCNc3nccc(N4CCOCC4)n3)ccnc2c1 | 16 nM | 6 nM |  |
| CCN1CCN(c2ccnc(NCCNc3ccnc4cc(Cl)ccc34)n2)CC1 | 16 nM | 6 nM |  |
| CCc1nc(N)nc(N)c1OCCCOc1ccccc1CCC(=O)O |  |  | EC50 (Plasmodium falciparum [8]): 56 nM |
